Experimental data from patent US9034906B2, “EP4 agonist” (Asahi Glass Company, Limited, priority 2008, dated 2015).

Assays:
[1] = In vitro metabolic stability: NADPH-independent β oxidation reaction in rat liver mitochondria fraction; assay type: in vitro ADME; details: 37° C., 30 min, tested as isomer mixtures, average±SD of 3 experiments
Experimental: A mixture of the compound F and compound J of the present invention described in Table 1 (F:J=52:41, synthesized in Example 14), and a mixture of compounds wherein the tetrazole groups at C-1 of compound F and compound J are respectively substituted by carboxylic acid (referred to as carboxylate form, F:J=54:34, synthesized in Example 15) were tested.
First, a mitochondria fraction was prepared from the rat liver according to the following Reference A. Then, in reference to the method of […] et al. described in the following References B and C, an NADPH-independent β oxidation reaction was studied. The reaction was carried out at 37° C. for 30 min, and stopped with a methanol solution containing a suitable internal standard substance. Each compound was quantified by the internal standard method using a high performance liquid chromatography mass spectrometry apparatus (LC-MS/MS). The compound residual ratio after metabolic reaction of compounds F, J and each carboxylate form thereof in rat mitochondria fraction is shown in the following Table 2 in average±standard deviation of 3 experiments.

[2] = tested on: dextran sodium sulfate-induced colitis; assay: Dextran sodium sulfate-induced colitis model in mice (C57BL/6); assay type: in vivo, mouse; details: C57BL/6 mice, DSS, oral 0.3 and 1 mg/kg once a day
Experimental: Whether or not an IP agonist has an effect on such colitis model was determined using a selective IP agonist, BPS.
Female C57BL/6 mice (6 weeks old, Japan SLC) were purchased, acclimated for 1 week and used for the study. Except the normal group, the mice were allowed to freely drink a 3 or 2 w/v % DSS (MP Biochemicals, Lot No. 5653H and 5464H, respectively) solution for 1 week to induce colitis. BPS at a dose of 0.3 mg/kg and compound F at doses of 0.3 and 1 mg/kg were orally administered once a day, daily, from the start day of DSS drinking (day 0) to one day before autopsy (day 9). To the control group was orally administered a solvent (1 vol % ethanol solution) at 10 mL/kg in the same manner. The consistency of the stool was graded from score 0 to 4, with normal (0), partly loose stool (1), loose stool (2) and diarrhea (4). The blood feces was also graded from score 0 to 4, with normal (0), partly blood feces (1), blood feces (2) and blood feces plus proctorrhagia (4). The sum of both grades was defined as the stool score (maximum 8). Furthermore, the length of the large intestine was measured in the same manner as in Example 23. Six to 10 animals were used for each group, and the results are shown in average±standard deviation.

human EP4 = molecular target: T1, human EP4 (Homo sapiens, UniProt P35408); assay: Receptor affinity, tritium-labeled PGE2 binding to membranes of transfected COS-7 cells; details: binding affinity ratio
T1 construct: expressed in transfected cells; host or cells: COS-7 (membranes)
Experimental: PG receptor affinity of compound F and compound J of the present invention was evaluated. Compound F used was one synthesized in Example 9, and compound J was prepared by separating and purifying the compound synthesized in Example 14 with a column (the same preparations were used in the following Examples). COS-7 cells were transfected with the genes of mouse EP4, human EP1-4 or human IP to overexpress the receptor and then the cell membranes were collected. […] The dissociation constant Kd value was obtained and inhibition constant Ki value of each test compound was determined in a conventional method.

[3] = tested on: dextran sodium sulfate-induced colitis; assay: Dextran sodium sulfate-induced colitis in rats, prophylactic; assay type: in vivo, rat; details: SD rats, 5.5 w/v % DSS, oral 1 mg/kg and 3 mg/kg once a day
Experimental: Prophylactic effect of compound F on colitis was also studied in rats. Male SD rats, 7 weeks old, body weight around 210 g-240 g (Charles River) were purchased, acclimated for 1 week and used for the study. Except the normal group, the rats were allowed to freely drink a DSS (MP Biochemicals, M.W. 36,000-50,000, Lot No. 4556J) solution prepared to 5.5 w/v % for 8 days to induce colitis. Compound F at doses of 0.3, 1 and 3 mg/kg was orally administered once a day, daily, from one day before the start day of DSS drinking to one day before autopsy (day 7). To the control group was orally administered a solvent (1 vol % ethanol solution) at 5 mL/kg.
On day 8 from the start of DSS drinking, 1.25 w/v % Evans blue solution was administered at 0.2 mL/100 g from the tail vein. After 30 min, the rats were subjected to laparotomy under ether anesthesia and exsanguinated to death. Thereafter, the large intestine was dissected from just below the cecum to the anus, and the length was measured with a scale. […] The next day, the dry weight was measured, formamide (2 mL) was added, the dye was extracted at 50° C. overnight, and the level thereof was measured at 620 nm. A standard curve was prepared using an Evans blue standard solution, and the amount (mg) of Evans blue in 1 g of the colonic tissue was calculated to estimate degree of colonic tissue injury. […]

T1 sequence (P35408 whole entry): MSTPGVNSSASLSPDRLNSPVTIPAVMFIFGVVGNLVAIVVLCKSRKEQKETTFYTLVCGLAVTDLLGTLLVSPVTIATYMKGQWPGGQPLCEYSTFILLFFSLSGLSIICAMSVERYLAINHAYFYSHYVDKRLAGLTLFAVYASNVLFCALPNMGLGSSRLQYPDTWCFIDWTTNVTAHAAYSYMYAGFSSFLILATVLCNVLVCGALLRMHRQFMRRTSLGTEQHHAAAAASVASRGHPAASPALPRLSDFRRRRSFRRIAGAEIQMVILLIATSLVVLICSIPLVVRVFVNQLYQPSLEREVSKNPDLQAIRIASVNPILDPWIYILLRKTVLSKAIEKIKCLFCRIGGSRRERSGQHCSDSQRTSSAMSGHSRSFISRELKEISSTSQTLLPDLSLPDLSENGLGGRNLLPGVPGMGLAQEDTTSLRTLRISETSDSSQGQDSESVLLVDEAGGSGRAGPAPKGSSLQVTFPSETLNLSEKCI

- Residual ratio of parent compound after β-oxidation reaction [1]: 91.6 ± 6.8%
- Affinity for human EP4 higher than to human EP1, EP2 and EP3 (human EP4): ≥ 60 fold
- Affinity for human EP4 higher than to human IP (human EP4): ≥ 100 fold
SMILES: Cc1cccc([C@@H](C)[C@H](O)/C=C/[C@@H]2[C@@H]3[C@H](C[C@H]2O)O/C(=C\CCCc2nnn[nH]2)C3(F)F)c1 [Compound F, 4-[(Z)-(1S,5R,6R,7R)-6-[(1E,3R,4R)-3-hydroxy-4-(m-tolyl)-1-pentenyl]-7-hydroxy-2-oxa-4,4-difluoro-bicyclo[3.3.0]octan-3-ylidene]-1-(tetrazol-5-yl)butane]
- Effect on the onset of colitis (stool score, colon shortening) [2]: superior prophylactic effect
- Effect on stool score, colonic tissue injury and shortening of the large intestine [3]: suppressive tendency or significant suppressive effect
